# According to patent US10975056B2 (GlaxoSmithKline Intellectual Property Development Limited, priority 2016, dated 2021):
# “And” between values parts separate entries of the source, which are not always exact repeats. Equal values may be shown once. Where a name gives a salt, the structure may show the parent alone. Read-outs that look alike come from different tables or passages of the source.
# Columns and labels:
# [1] = system: erythroid progenitor cells (EPCs); assay: Fetal hemoglobin (HbF) ELISA in day 7 erythroid progenitor cells; type: cell-based, human; settings: Homo sapiens, Erythroid progenitor cell, HbF ELISA, day 7 EPCs, 5 days; read-out: EPC ELISA (pEC50 category) (converted)
# Experimental: Day 7 EPCs were cultured in duplicate plates with serially diluted Compound A for 5 days at 37° C. Wells were then analyzed for either induction of fetal hemoglobin (HbF,HbF ELISA) or cell growth (Cell Titer-Glo). In both cases, signal was normalized to vehicle-control treated cells.
# Culture, Expansion, and Characterization of Day 7 Erythroid Progenitor Cells (EPC)s
# All donors provided written informed consent for use of their samples, and the collection and use of the samples received institutional review board approval. All cryopreserved human bone marrow CD34+ cells used here were obtained from AlICells (Emeryville, Calif.) and were generally from different donors. The CD34+ cells were cultured to generate EPCs at day 7. Briefly, 1 million cells were cultured in 5% CO2, 5% O2 at 37° C. in H3000 Stemspan media (StemCell Technologies Vancouver, BC, Canada) supplemented with 2 mM L-glutamine, 40 μg/mL human low-density lipoproteins (StemCell Technologies), 10 ng/mL recombinant human (rh) interleukin IL-3 (R&D Systems, Minneapolis, Minn.), 100 ng/mL rh stem cell factor (R&D Systems), and 0.5 U/mL rh erythropoietin (Invitrogen, Grand Island, N.Y.). Cells were split and refed on day 4 with complete culture media described above and harvested on day 7 for evaluation of erythroid marker expression and assessment of γ-globin induction. Day 7 EPCs were then frozen in liquid nitrogen at 5 to 10 million cells/mL in 95% fetal bovine serum (FBS; Invitrogen) with 5% DMSO for subsequent use.
# At the time of compound treatment, frozen day 7 EPCs prepared as described above were thawed, washed once and re-suspended in complete culture media as described above with the exception of an increase of rhEPO to 3 U/mL. Cells were counted and diluted to […] for plating into assay plates. Cells were then dispensed, at 30 μL per well with Multidrop™ Combi Reagent Dispenser (Thermo Scientific), into 384-well cell culture plates into which test compounds were pre-dispensed at 100 nL/well. Black Clear Bottom (Greiner Bio-One; 781090) and White (Greiner Bio-One; 781080) plates were used for ELISA and Cell Titer-Glo assays, respectively. The final cell density in the assays is 1,000 cells per well, with final compound concentrations between 33 nM (highest) and […] (lowest) for the 22-points serial dilution.
# Fetal Hemoglobin (HbF) ELISA
# Coating anti-HbF Ab (Bethyl Lab; cat. A80-136A) was diluted by 100-fold in the coating buffer (0.05 M carbonate-bicarbonate, pH 9.6), and then 20 μL/well was added to a 384-well MaxiSorp ELISA plate (Thermo Fisher; cat. 464718). After 1 hour incubation at room temperature, the plates were washed twice with ELISA washing buffer (50 mM Tris, 0.05% Tween 20, pH 8.0) with an EL406 plate washer (BioTek, Winooski, Vt.). Then, 40 μL/well of blocking buffer consisting of 50 mM Tris and 1% BSA (pH 8.0) was added to the plate and stored at 4° C. with cover sheet overnight, or until time of the assay. The coated ELISA plates were stable for up to 30 days at 4° C. On the day of assay, the plates were washed twice with ELISA washing buffer prior to addition of cell lysate.
# After 5 days at 37° C. with 5% CO2 cell culture plates for ELISA assay were put into −80° C. freezer for a minimum of 2 hours. After thawing at room temperature, 30 μL of cell lysis buffer (Invitrogen; cat. FNN0011, supplemented with 1× protease inhibitor) was added to each well and the resulting cell lysate was mixed eight times with a Cybi-Well (Jena, Germany) pipettor. Following the mixing procedure, 20 μL/well of lysate was transferred to the coated ELISA plates described above followed by a 1 hour incubation at room temperature. The ELISA assay plates were washed three times with ELISA wash buffer. 20 μL per well of 1:75,000 to 100,000 diluted horseradish peroxidase (HRP) conjugate detection antiHbF Ab (Bethyl Labs; cat. A80-136P, diluted in 50 mM Tris [pH 8.0], 1% BSA, 0.05% Tween-20) was then added. […]
# DNMT1 = DNMT1 (Homo sapiens, UniProt P26358); assay: DNMT1 biochemical activity, breaklight assay and/or SPA assay
# Chain of DNMT1 (P26358 whole entry, looked up): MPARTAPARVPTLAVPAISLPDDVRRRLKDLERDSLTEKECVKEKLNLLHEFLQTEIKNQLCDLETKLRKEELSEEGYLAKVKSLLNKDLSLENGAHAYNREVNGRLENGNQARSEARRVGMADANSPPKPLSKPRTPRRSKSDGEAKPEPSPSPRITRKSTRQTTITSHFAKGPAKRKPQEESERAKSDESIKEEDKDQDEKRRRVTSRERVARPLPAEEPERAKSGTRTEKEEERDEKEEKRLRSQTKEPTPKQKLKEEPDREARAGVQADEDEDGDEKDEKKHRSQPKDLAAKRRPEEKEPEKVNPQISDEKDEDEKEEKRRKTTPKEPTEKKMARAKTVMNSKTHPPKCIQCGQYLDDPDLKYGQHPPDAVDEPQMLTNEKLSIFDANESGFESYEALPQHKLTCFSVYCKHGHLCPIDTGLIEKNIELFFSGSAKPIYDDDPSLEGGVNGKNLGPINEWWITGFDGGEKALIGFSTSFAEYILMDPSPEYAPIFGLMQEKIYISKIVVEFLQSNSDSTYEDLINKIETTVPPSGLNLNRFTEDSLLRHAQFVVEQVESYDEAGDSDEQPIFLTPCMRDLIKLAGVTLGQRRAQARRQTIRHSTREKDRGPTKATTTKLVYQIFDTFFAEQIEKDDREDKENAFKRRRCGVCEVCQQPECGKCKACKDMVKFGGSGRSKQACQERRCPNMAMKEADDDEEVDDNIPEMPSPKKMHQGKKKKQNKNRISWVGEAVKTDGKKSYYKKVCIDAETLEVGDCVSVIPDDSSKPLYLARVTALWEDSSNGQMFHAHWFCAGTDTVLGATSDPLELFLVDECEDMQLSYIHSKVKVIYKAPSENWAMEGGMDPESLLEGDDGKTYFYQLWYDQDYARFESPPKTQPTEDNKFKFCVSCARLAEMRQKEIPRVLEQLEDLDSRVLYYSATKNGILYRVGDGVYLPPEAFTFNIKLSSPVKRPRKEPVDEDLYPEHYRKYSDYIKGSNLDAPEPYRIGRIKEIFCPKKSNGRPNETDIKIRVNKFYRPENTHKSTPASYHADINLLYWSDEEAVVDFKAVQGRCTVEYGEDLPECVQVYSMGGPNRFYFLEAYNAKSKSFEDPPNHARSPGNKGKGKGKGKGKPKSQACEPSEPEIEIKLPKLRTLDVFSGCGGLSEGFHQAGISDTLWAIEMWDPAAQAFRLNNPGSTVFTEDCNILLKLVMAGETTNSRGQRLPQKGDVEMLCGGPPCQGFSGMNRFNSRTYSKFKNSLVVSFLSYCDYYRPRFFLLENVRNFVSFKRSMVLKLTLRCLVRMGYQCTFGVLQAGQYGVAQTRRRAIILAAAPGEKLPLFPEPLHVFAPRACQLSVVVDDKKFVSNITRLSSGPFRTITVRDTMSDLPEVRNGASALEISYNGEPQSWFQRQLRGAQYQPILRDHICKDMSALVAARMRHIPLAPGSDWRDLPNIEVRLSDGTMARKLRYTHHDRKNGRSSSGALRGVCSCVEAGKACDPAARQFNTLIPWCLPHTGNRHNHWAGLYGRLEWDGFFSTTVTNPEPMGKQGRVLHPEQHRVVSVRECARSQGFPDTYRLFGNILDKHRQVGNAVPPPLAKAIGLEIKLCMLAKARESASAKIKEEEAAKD
# [2] = binned activity in either the breaklight or the SPA assay
# [3] = binned activity in either the breaklight or the SPA assay, read-out: DNMT1 BioChemical (pIC50 category) (converted)
# [4] = breaklight assay and/or SPA assay, repeated experimental runs, read-out: average pIC50 against DNMT1 (converted)
SMILES,EC50 [1] [nM],DNMT1 BioChemical (pIC50 category) (DNMT1; [2]),IC50 (DNMT1; [3]) [nM],IC50 (DNMT1; [4])
"CCc1c(C#N)c(SCc2ccc(N(C)S(C)(=O)=O)cc2)nc(N(C)CCN2CCCCC2)c1C#N [Example 577, N-(4-(((3,5-dicyano-4-ethyl-6-(methyl(2-(piperidin-1-yl)ethyl)amino)pyridin-2-yl)thio)methyl)phenyl)-N-methylmethanesulfonamide]",< 316,D (Category D: ≥6.5),–,–
CCc1c(C#N)c(SC(C(N)=O)c2ccccc2)nc(N2CCN(CCCN(C)C)CC2)c1C#N (centres unmarked) [Example 120],< 316,–,316 to 1000,316 to 1000 nM
"CCc1c(C#N)c(S[C@@H](C(N)=O)c2ccccc2)nc(N2CC[C@](O)(CO)C2)c1C#N [Example 689, (R)-2-((3,5-dicyano-4-ethyl-6-((R)-3-hydroxy-3-(hydroxymethyl)pyrrolidin-1-yl)pyridin-2-yl)thio)-2-phenylacetamide]",1000 to 31600,D (Category D: ≥6.5),–,–
"CCc1c(C#N)c(SC(C(N)=O)c2cccc(C(F)(F)F)c2)nc(N2CCCN(C)CC2)c1C#N (centres unmarked) [Example 223, 2-((3,5-Dicyano-4-ethyl-6-(4-methyl-1,4-diazepan-1-yl)pyridin-2-yl)thio)-2-(3-(trifluoromethyl)phenyl)acetamide]",1000 to 31600,–,316 to 1000,–
"CCc1c(C#N)c(SC(C(N)=O)c2ccccc2)nc(N2CCC(N)(CO)CC2)c1C#N (centres unmarked) [Example 242, 2-((6-(4-Amino-4-(hydroxymethyl)piperidin-1-yl)-3,5-dicyano-4-ethylpyridin-2-yl)thio)-2-phenylacetamide, Trifluoroacetic Acid Salt]",< 316,D (Category D: ≥6.5),–,–
"CCc1c(C#N)c(SC(C(N)=O)c2ccccc2)nc(N2CCC(O)(CO)CC2)c1C#N (centres unmarked) [Example 240, 2-((3,5-Dicyano-4-ethyl-6-(4-hydroxy-4-(hydroxymethyl)piperidin-1-yl)pyridin-2-yl)thio)-2-phenylacetamide]",1000 to 31600,–,316 to 1000,–
"N#Cc1c(SC(C(N)=O)c2ccccc2)nc(N2CCNC(CO)C2)c(C#N)c1C1CC1 (centres unmarked) [Example 14, 2-({3,5-dicyano-4-cyclopropyl-6-[3-(hydroxymethyl)piperazin-1-yl]pyridin-2-yl}sulfanyl)-2-phenylacetamide]",316 to 1000,D (Category D: ≥6.5),–,–
CCc1c(C#N)c(SCc2ccc(NC(C)=O)cc2)nc(N(C)C)c1C#N [Example 273],1000 to 31600,–,316 to 1000,–
"CCc1c(C#N)c(SCc2ccc(NC(=O)CO)cc2)nc(N2CCCN(C)CC2)c1C#N [Example 301, N-(4-(((3,5-Dicyano-4-ethyl-6-(4-methyl-1,4-diazepan-1-yl)pyridin-2-yl)thio)methyl)phenyl)-2-hydroxyacetamide]",316 to 1000,D (Category D: ≥6.5),–,–
"CCc1c(C#N)c(SC(C(N)=O)c2ccccc2)nc(N2CCOC(CN(CC)CC)C2)c1C#N (centres unmarked) [Example 559, 2-((3,5-dicyano-6-(2-((diethylamino)methyl)morpholino)-4-ethylpyridin-2-yl)thio)-2-phenylacetamide]",< 316,D (Category D: ≥6.5),–,–
"CCc1c(C#N)c(SC(C(N)=O)c2ccccc2)nc(N(C)CCNCCF)c1C#N (centres unmarked) [Example 495, 2-((3,5-dicyano-4-ethyl-6-((2-((2-fluoroethyl)amino)ethyl)(methyl)amino)pyridin-2-yl)thio)-2-phenylacetamide]",1000 to 31600,D (Category D: ≥6.5),–,–
"CCc1c(C#N)c(SCc2ccc(OCCN(C)C)cc2)nc(N2CCCN(C)CC2)c1C#N [Example 377, 2-(4-(2-(Dimethylamino)ethoxy)benzylthio)-4-ethyl-6-(4-methyl-1,4-diazepan-1-yl)pyridine-3,5-dicarbonitrile]",> 31600,–,1000 to 31600,≥ 1000 nM
"CCc1c(C#N)c(SC(C(N)=O)c2ccc(F)cc2)nc(N2CCC(N3CC(OC)C3)CC2)c1C#N (centres unmarked) [Example 698, 2-((3,5-dicyano-4-ethyl-6-(4-(3-methoxyazetidin-1-yl)piperidin-1-yl)pyridin-2-yl)thio)-2-(4-fluorophenyl)acetamide]",< 316,D (Category D: ≥6.5),–,–
"CCc1c(C#N)c(SC(C(N)=O)c2ccc(C(=O)c3ccccc3)cc2)nc(N2CCCN(CCO)CC2)c1C#N (centres unmarked) [Example 245, 2-(4-Benzoylphenyl)-2-((3,5-dicyano-4-ethyl-6-(4-(2-hydroxyethyl)-1,4-diazepan-1-yl)pyridin-2-yl)thio)acetamide]",316 to 1000,–,316 to 1000,–

# Second part, the compound after the results:
EC50 [1] [nM],DNMT1 BioChemical (pIC50 category) (DNMT1; [2]),IC50 (DNMT1; [3]) [nM],IC50 (DNMT1; [4]),SMILES
< 316,D (Category D: ≥6.5),–,–,"CCc1c(C#N)c(SC(C(N)=O)c2ccccc2)nc(N2CCC(NC)CC2)c1C#N (centres unmarked) [Example 547, 2-((3,5-dicyano-4-ethyl-6-(4-(methylamino)piperidin-1-yl)pyridin-2-yl)thio)-2-phenylacetamide]"
316 to 1000,–,316 to 1000,–,"N#Cc1c(SC(C(N)=O)c2ccccc2)nc(N2CCC[C@H](O)C2)c(C#N)c1C1CC1 (stereo partly drawn) [Example 33, 2-(3,5-dicyano-4-cyclopropyl-6-((S)-3-hydroxypiperidin-1-yl)pyridin-2-ylthio)-2-phenylacetamide]"
316 to 1000,–,316 to 1000,–,"CCc1c(C#N)c(SC(C(N)=O)c2ccccc2)nc(N2CCN(Cc3ccncc3)CC2)c1C#N (centres unmarked) [Example 173, 2-((3,5-Dicyano-4-ethyl-6-(4-(pyridin-4-ylmethyl)piperazin-1-yl)pyridin-2-yl)thio)-2-phenylacetamide]"
< 316,–,316 to 1000,316 to 1000 nM and 398 nM,"CCc1c(C#N)c(SC(C(N)=O)c2ccccc2)nc(N2CCC(N3CCC(F)(F)C3)CC2)c1C#N (centres unmarked) [Example 496, 2-((3,5-dicyano-6-(4-(3,3-difluoropyrrolidin-1-yl)piperidin-1-yl)-4-ethylpyridin-2-yl)thio)-2-phenylacetamide]"
> 31600,–,316 to 1000,–,"N#Cc1c(SC(C(N)=O)c2ccccc2)nc(N2CCCC(NCC(=O)O)C2)c(C#N)c1C1CC1 (centres unmarked) [Example 175, 2-((1-(6-((2-Amino-2-oxo-1-phenylethyl)thio)-3,5-dicyano-4-cyclopropvlpyridin-2-yl)piperidin-3-yl)amino)acetic acid]"
< 316,D (Category D: ≥6.5),–,–,"CCc1c(C#N)c(SCc2ccc(N(C)S(C)(=O)=O)cc2)nc(N2CCC(NCCO)CC2)c1C#N [Example 692, N-(4-(((3,5-dicyano-4-ethyl-6-(4-((2-hydroxyethyl)amino)piperidin-1-yl)pyridin-2-yl)thio)methyl)phenyl)-N-methylmethanesulfonamide]"
316 to 1000,–,316 to 1000,–,"CCc1c(C#N)c(SCC(N)=O)nc(SC(C(N)=O)c2ccccc2)c1C#N (centres unmarked) [Example 235, 2-((6-((2-Amino-2-oxoethyl)thio)-3,5-dicyano-4-ethylpyridin-2-yl)thio)-2-phenylacetamide]"
1000 to 31600,–,1000 to 31600,–,"CCc1c(C#N)c(SC(C(N)=O)c2ccccc2)nc(N2CC(OP(=O)(O)O)C2)c1C#N (centres unmarked) [Example 152, 1-(6-((2-Amino-2-oxo-1-phenylethyl)thio)-3,5-dicyano-4-ethylpyridin-2-yl)azetidin-3-yl dihydrogen phosphate]"
